Assay results reported in US5756423A, “Method of controlling plants by inhibition of farnesyl pyrophosphate synthase” (Zeneca Limited, priority 1997, dated 1998).

Assays:
[1] = system: farnesyl pyrophosphate synthase in daffodil chromoplasts; experiment: inhibition of farnesyl pyrophosphate synthase in daffodil chromoplasts (14C-isopentenyl pyrophosphate incorporation); assay type: biochemical, Narcissus pseudonarcissus; settings: Table II; unit inferred, IC50 values in nM; read-out: IC50
How it was run: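 Daffodil chromoplasts in pH 7.7 sucrose/MgCl2/HEPES buffer with cysteine, NaF and BSA, started with ~3 micromolar 14C-isopentenyl pyrophosphate, 30 min at 30° C. Butanol-extractable radioactivity counted by scintillation; % residual activity calculated against zero-time and end-point no-inhibitor controls.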

[2] = system: wild oat (Avena fatua) (AVEFA); experiment: post-emergent herbicidal test, wild oat; assay type: in vivo; settings: Avena fatua, post-emergence; post-emergent, 1.0 kg/ha (*), 17-21 days after application; read-out: AVEFA percent control
How it was run: (§1)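 Seedlings grown in sandy loam in a greenhouse (29/21 °C day/night, 14 h light) were sprayed post-emergence at 1 or 4 kg/ha in water with 0.5% Tween 20; grasses at 3–4 leaf, broadleaves at 1–2 leaf. Percent control versus untreated flats (0–100%) was rated 17–21 days later.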

[3] = system: barnyard grass (Enchinochloa crusgalli) (ECHCG); experiment: post-emergent herbicidal test, barnyard grass; assay type: in vivo; settings: Echinochloa crus-galli, post-emergence, post-emergent, 1.0 kg/ha (*), 17-21 days after application; read-out: ECHCG percent control
How it was run: as §1

[4] = system: green foxtail (Setaria viridis) (SETVI); experiment: post-emergent herbicidal test, green foxtail; assay type: in vivo; settings: Setaria viridis, post-emergence, post-emergent, 1.0 kg/ha (*), 17-21 days after application; read-out: SETVI percent control
How it was run: as §1

[5] = system: velvetleaf (Abutilon theophrasti) (ABUTH); experiment: post-emergent herbicidal test, velvetleaf; assay type: in vivo; settings: Abutilon theophrasti, post-emergence, post-emergent, 1.0 kg/ha (*), 17-21 days after application; read-out: ABUTH percent control
How it was run: as §1

[6] = system: morningglory (Ipomoea spp.) (IPOSS); experiment: post-emergent herbicidal test, morningglory; assay type: in vivo; settings: Ipomoea, post-emergence, post-emergent, 1.0 kg/ha (*), 17-21 days after application; read-out: IPOSS percent control
How it was run: as §1

[7] = system: wild mustard (Brassica kaber), also known as Sinapis arvensis (SINAR); experiment: post-emergent herbicidal test, wild mustard; assay type: in vivo; settings: Brassica, post-emergence, post-emergent, 1.0 kg/ha (*), 17-21 days after application; read-out: SINAR percent control
How it was run: as §1

[8] = system: yellow nutsedge (Cyperus esculentus) (CYPES); experiment: post-emergent herbicidal test, yellow nutsedge; assay type: in vivo; settings: Cyperus, post-emergence, post-emergent, 1.0 kg/ha (*), 17-21 days after application; read-out: CYPES percent control
How it was run: as §1

IC50 [1]: 58 nM
SMILES: CC(O)CNCC(P(=O)(O)O)P(=O)(O)O (centres unmarked) [Compound 66]
pest or weed control at 1000 g/ha [2]: 90% | pest or weed control at 1000 g/ha [3]: 95% | pest or weed control at 1000 g/ha [4]: 98% | pest or weed control at 1000 g/ha [5]: 90% | pest or weed control at 1000 g/ha [6]: 75% | pest or weed control at 1000 g/ha [7]: 100% | pest or weed control at 1000 g/ha [8]: 60%
